From PMC6344527, “Toxicity and possible mechanisms of action of honokiol from Magnolia denudata seeds against four mosquito species” (Scientific Reports, 2019)
Values after ≈ are worked out from the molar mass of the structure shown. Like-named read-outs stand apart in the source and are kept apart here.

How the values were obtained:
[1] = design: method as in PMID 20877235; settings: cited from earlier work
[2] = system: larvae of four mosquito species (Cx. pipiens pallens, Ae. aegypti, Ae. albopictus, and An. sinensis); assay: contact mortality bioassay, range over four mosquito species; format: in vivo; settings: 24 h
Procedure: (§1) A contact mortality bioassay[25] was used to evaluate the toxicity of all compounds against third-instar larvae of the four mosquito species. Each test compound in methanol was suspended in DW with Triton X-100 (20 µL/L). Groups of 20 mosquito larvae were separately placed into paper cups (270 mL) containing each compound solution (250 mL). […] Negative controls consisted of a methanol–Triton X-100 solution in DW.
(§2) Treated and control (methanol–Triton X-100 solution only) larvae were maintained under the same conditions as those used for colony maintenance without providing food. Larval mortalities were determined 24 h post-treatment. […] All treatments were performed three times using 20 larvae per replicate.
(§3) The concentration of the test compounds required to produce 50% AChE inhibitory activity (IC50) was determined using the SAS 9.13 program (Cary: SAS Institute; 2014). Concentration-mortality data were subjected to probit analysis using the SAS 9.13 program. […] Statistical analyses were performed using the SAS 9.13 program. Multiple linear regression and correlation analysis were performed using the SPSS 24 program (Armonk: IBM Corp.; 2016).

[3] = system: third-instar larvae of insecticide-susceptible Culex pipiens pallens; assay: contact mortality bioassay, 24 h exposure; format: in vivo; settings: for LC50: Culex pipiens, 24 h, read-out: LC50 (mg/L) (95% CI)
Procedure: as §1, §2, §3

[4] = system: third-instar larvae of insecticide-resistant Anopheles sinensis; assay: contact mortality bioassay, 24 h exposure; format: in vivo; settings: Table 5, larvae resistant to deltamethrin and temephos, 24 h exposure
Procedure: as §1, §2, §3

[5] = system: third-instar larvae of insecticide-susceptible Aedes aegypti; assay: contact mortality bioassay, 24 h exposure; format: in vivo; settings: for LC50: Aedes aegypti, 24 h, read-out: LC50 (mg/L) (95% CI)
Procedure: as §1, §2, §3

[6] = system: third-instar larvae of insecticide-susceptible Aedes albopictus; assay: contact mortality bioassay, 24 h exposure; format: in vivo
Procedure: as §1, §2, §3

[7] = system: midgut and anal gills of third-instar Ae. aegypti larvae; assay: transmission electron microscopy analysis of midgut and anal gills; format: in vivo, Aedes aegypti; settings: honokiol 6.5 mg/L or magnolol 25 mg/L (LC50), 24 h
Procedure: At 24 h post-treatment, the midgut and anal gills of the untreated and treated Ae. aegypti larvae were fixed in Karnovsky’s fixative (2% (v/v) glutaraldehyde and 2% (v/v) paraformaldehyde in 0.05 M sodium cacodylate buffer (pH 7.2)) at 4 °C in darkness for 2–4 h and were washed three times with the same buffer. The specimens were post-fixed with 1% (w/v) osmium tetroxide in the same buffer at 4 °C for 2 h and washed with DW three times. The post-fixed specimens were then dehydrated through a graded series of ethanol with increasing concentrations up to 100% for 15 min. The specimens were further treated with propylene oxide twice each for 15 min as a transitional fluid and embedded in Spurr’s resin[77]. Ultrathin sections (approximately 50 nm thickness) were cut with a UC6 ultramicrotome (Leica Microsystems, Wetzlar, Germany) and stained in 2% aqueous uranyl acetate for 7 min at room temperature as well as with Reynolds lead citrate[78] for 7 min. The sections were mounted on copper grids, and micrographs were obtained from a CM120 transmission electron microscope (Philips Electronics, Amsterdam, Netherlands) at 80 kV. Images were captured using a MegaView III digital camera (Olympus-SIS, Lakewood, CO, USA). Observations were taken of 12 larvae via TEM.

[8] = system: whole-body homogenate from third-instar Aedes aegypti larvae (adenylate cyclase activity); assay: determination of cyclic AMP levels (octopamine-sensitive adenylate cyclase activity); format: biochemical; settings: 100 μM; compared with control group / octopamine
Procedure: The method of Perumalsamy et al.[42] was used to assess the in vitro octopamine-sensitive adenylate cyclase activity of the test compounds. In brief, whole bodies of 75 Ae. aegypti larvae (106.2 mg) were homogenized in 500 µL of 2 mM Tris-maleate buffer (pH 7.4) containing 0.8 mM ethylene glycol tetraacetic acid (EGTA). The adenylate cyclase activity was determined using the cAMP Biotrak Enzymeimmunoassay system according to the manufacturer’s protocol. The assay was conducted in a total volume of 100 µL containing 80 mM Tris-maleate buffer, 5 mM theophylline, 2 mM MgSO4, 0.5 mM adenosine triphosphate (ATP), 0.2 mM EGTA, 50 µL of whole-body homogenate (equivalent to 4.12 µg protein), and 1 µL of the test compounds in Tris-maleate buffer containing 0.2% ethanol. After incubation at 20 °C for 5 min, the reaction was initiated by addition of ATP. Incubation was performed at 30 °C for 3 min in a shaking water bath. The reaction was stopped by boiling for 2 min, and then, the assay tube was cooled and centrifuged at 8,000 × g for 10 min. Fifty microliters of the supernatant were assayed for cAMP levels.
Polystyrene microplates (1 strip of 8 wells) coated with a goat anti-mouse polyclonal antibody were used. Fifty microliters of a mouse monoclonal antibody solution were added to each well except for the blank wells (or the nonspecific binding wells). The wells covered with the adhesive strip were incubated at 25 °C for 1 h in a shaking incubator (480 rpm). After washing with 400 µL of wash buffer four times, 50 μL of the two neolignan samples for cAMP determination and cAMP standard were added to wells. Control, blank (nonspecific binding), and zero standard wells were supplemented with 50 μL of a diluent RD5-55 buffer. […] The optical densities at 450 and 540 nm were determined using the microplate reader described above. The readings at 540 nm were subtracted from the readings at 450 nm. The cAMP concentrations are expressed as nmol/µg protein. The results are expressed as the means ± SEs of triplicate samples from three independent experiments.

[9] = Table 6, structure-activity series, 24 h exposure
[10] = Table 2, KS-CP strain, 24 h exposure, listed as Pure honokiol
[11] = Table 7, structure-activity series, 24 h exposure
[12] = Table 3, 24 h exposure, listed as Pure honokiol

In the case of `C=CCc1ccc(O)c(-c2ccc(O)c(CC=C)c2)c1` [Honokiol, 2-(4-hydroxy-3-prop-2-enyl-phenyl)-4-prop-2-enyl-phenol], the “toxicity in animal models” value [1] is given as “no toxicity or serious adverse effects”, the LC50 [2] is given as 6.13 to 7.37 µg/mL (≈ 23 to 27.7 µM) and the LC50 ([3]; Table 2, KS-CP strain, 24 h exposure) is given as 6.32 mg/L (≈ 23.7 µM). For the same molecule, the LC50 [3, 9] was 6.32 mg/L (≈ 23.7 µM), the “times more toxic than the structural isomer magnolol” value ([3]; Cx. pipiens pallens and Ae. aegypti larvae) was “approximately 4 times” and the “LC90 (mg/L) (95% CI)” value ([3]; Table 2, KS-CP strain, 24 h exposure, listed as Natural honokiol) was 18.78 (15.30–25.99) mg/L. The “LC50 (mg/L) (95% CI)” value [3, 10] was 6.38 (5.01–7.78) mg/L, the “LC90 (mg/L) (95% CI)” value [3, 10] was 19.30 (15.64–27.01) mg/L and the “LC90 (mg/L) (95% CI)” value [3, 9] was 18.78 (15.30–25.99) mg/L. For the same molecule, the “times less toxic than temephos” value ([3]; from 24 h LC50 values) was 390 times, the LC50 ([4]; Anopheles sinensis, read-out: LC50 (mg/L) (95% CI)) was 7.37 mg/L (≈ 27.7 µM) and the “LC90 (mg/L) (95% CI)” value [4] was 31.45 (22.90–56.82) mg/L. For the same molecule, the “Slope ± SE” value ([4]; probit slope) was 2.0 ± 0.35, the LC50 ([5]; Table 3, 24 h exposure) was 6.51 mg/L (≈ 24.4 µM) and the LC50 [5, 11] was 6.51 mg/L (≈ 24.4 µM). The “LC90 (mg/L) (95% CI)” value ([5]; Table 3, 24 h exposure, listed as Natural honokiol) was 22.59 (17.70–34.15) mg/L, the “LC50 (mg/L) (95% CI)” value [5, 12] was 6.48 (5.11–7.90) mg/L and the “LC90 (mg/L) (95% CI)” value [5, 12] was 23.84 (18.41–37.36) mg/L. The “times less toxic than temephos” value ([5]; from 24 h LC50 values) was 521 times, the LC50 ([6]; Aedes albopictus, Table 4, 24 h exposure, read-out: LC50 (mg/L) (95% CI)) was 6.13 mg/L (≈ 23 µM) and the “LC90 (mg/L) (95% CI)” value ([6]; Table 4, 24 h exposure) was 16.52 (13.74–21.90) mg/L. For the same molecule, the “times less toxic than temephos” value ([6]; from 24 h LC50 values) was 464 times, the “Slope ± SE” value ([6]; probit slope, Table 4, 24 h exposure) was 2.9 ± 0.52 and the “histopathological effects on anal gills (TEM)” value [7] was “cytoplasmic disruption with damaged anal gill cells”. For the same molecule, the “histopathological effects on midgut (TEM)” value [7] was “devastated cellular material and extruded masses in the cytoplasm” and the cAMP levels [8] was “significantly higher than that induced by the control group”.
With `C=CCc1ccc(O)c(-c2cc(CC=C)ccc2O)c1` [Magnolol, magnolol] the LC50 [3, 9] was 26 mg/L (≈ 97.6 µM), the “LC90 (mg/L) (95% CI)” value [3, 9] was 80.42 (63.28–117.4) mg/L and the LC50 [5, 11] was 25.7 mg/L (≈ 96.5 µM). For the same molecule, the “LC90 (mg/L) (95% CI)” value [5, 11] was 83.14 (64.68–124.4) mg/L, the “histopathological effects on anal gills (TEM)” value [7] was “damaged outer membranes of thick cuticles, which led to internal cytoplasmic destruction” and the “histopathological effects on midgut (TEM)” value [7] was “complete disappearance of nuclei as well as cytoplasmic contents”. The cAMP levels [8] was “significantly higher than that induced by the control group”.
